# From ChEMBL document CHEMBL2057122, “Synthesis and positive inotropic evaluation of N-(1-oxo-1,2,4,5-tetrahydro-[1,2,4]triazolo[4,3-a]quinolin-7-yl)acetamides bearing piperazine and 1,4-diazepane moieties” (Bioorg Med Chem Lett, 2012)
# Activity calls are given as the source filed them. No cut-off for these calls is given here.
# Key:
# [1] = (§1) Positive inotropic effect in New Zealand White rabbit left atrium assessed as increase in stroke volume at 3 X 10^-5 M by electrocardiogram analysis; format: functional, Oryctolagus cuniculus, Cardiac atrium
# [2] = Chronotropic effect in New Zealand White rabbit left atrium assessed as change in heart rate by electrocardiogram analysis relative to control; format: tissue-based, Oryctolagus cuniculus, Cardiac atrium
# [3] = species on record: Oryctolagus cuniculus; assay: Positive inotropic effect in New Zealand White rabbit left atrium assessed as increase in stroke volume at 1 X 10^-4 M by electrocardiogram analysis; format: functional, tissue-based; details: Cardiac atrium
# [4] = species on record: Oryctolagus cuniculus; assay: Positive inotropic effect in New Zealand White rabbit beating left atrium assessed as increase in stroke volume at 30 uM/L by electrocardiogram analysis; format: functional, tissue-based; details: Cardiac atrium
# [5] = species on record: Oryctolagus cuniculus; assay: as §1; format: functional; details: Cardiac atrium
SMILES,Activity [1] [%],Activity [2] [bpm],Activity [3],Activity [4],Activity [5]
COc1cc(CN2CCN(CC(=O)Nc3ccc4c(c3)CCc3n[nH]c(=O)n3-4)CC2)ccc1OCc1ccccc1,2.26,,,,
O=C(CN1CCN(C/C=C/c2ccccc2)CC1)Nc1ccc2c(c1)CCc1n[nH]c(=O)n1-2,9.4,99.89,inactive,inactive,
O=C(CN1CCN(Cc2ccccc2F)CC1)Nc1ccc2c(c1)CCc1n[nH]c(=O)n1-2,1.82,,,,
O=C(CN1CCN(Cc2ccc(F)cc2)CC1)Nc1ccc2c(c1)CCc1n[nH]c(=O)n1-2,,,,,inactive
COc1ccc(CN2CCN(CC(=O)Nc3ccc4c(c3)CCc3n[nH]c(=O)n3-4)CC2)cc1,1.46,,,,
O=C(CN1CCN(Cc2ccccc2Br)CC1)Nc1ccc2c(c1)CCc1n[nH]c(=O)n1-2,,,,,inactive
Cc1ccc(CN2CCN(CC(=O)Nc3ccc4c(c3)CCc3n[nH]c(=O)n3-4)CC2)cc1,5.48,,,inactive,
O=C(CN1CCCN(Cc2cccc(Cl)c2)CC1)Nc1ccc2c(c1)CCc1n[nH]c(=O)n1-2,6.41,120.84,,inactive,
Cc1ccc(CN2CCCN(CC(=O)Nc3ccc4c(c3)CCc3n[nH]c(=O)n3-4)CC2)cc1,6.75,111.86,,inactive,
O=C(CN1CCN(Cc2ccccc2)CC1)Nc1ccc2c(c1)CCc1n[nH]c(=O)n1-2,3.56,,,inactive,
COc1cc(CN2CCN(CC(=O)Nc3ccc4c(c3)CCc3n[nH]c(=O)n3-4)CC2)ccc1OCc1ccc(Cl)cc1,2.22,,,,
Cc1[nH]c(=O)c(C#N)cc1-c1ccncc1 [MILRINONE],2.46,,,inactive,
O=C(CN1CCN(Cc2c(Cl)cccc2Cl)CC1)Nc1ccc2c(c1)CCc1n[nH]c(=O)n1-2,,,,,inactive
O=C(CN1CCN(Cc2ccccc2Cl)CC1)Nc1ccc2c(c1)CCc1n[nH]c(=O)n1-2,4.01,,,inactive,
O=C(CN1CCCN(Cc2ccccc2)CC1)Nc1ccc2c(c1)CCc1n[nH]c(=O)n1-2,9.07,90.01,,inactive,
O=C(CN1CCCN(Cc2ccccc2Cl)CC1)Nc1ccc2c(c1)CCc1n[nH]c(=O)n1-2,8.98,118.36,,inactive,
O=C(CN1CCN(Cc2cccc(Br)c2)CC1)Nc1ccc2c(c1)CCc1n[nH]c(=O)n1-2,,,,,inactive
O=C(CN1CCCN(Cc2ccc(Cl)cc2)CC1)Nc1ccc2c(c1)CCc1n[nH]c(=O)n1-2,15.48,121.68,inactive,inactive,
O=C(CN1CCN(Cc2cccc(Cl)c2)CC1)Nc1ccc2c(c1)CCc1n[nH]c(=O)n1-2,3.46,,,inactive,
O=C(CN1CCN(Cc2ccc(Cl)cc2)CC1)Nc1ccc2c(c1)CCc1n[nH]c(=O)n1-2,3.09,,,inactive,
O=C(CN1CCN(Cc2ccc(Br)cc2)CC1)Nc1ccc2c(c1)CCc1n[nH]c(=O)n1-2,,,,,inactive
O=C(CN1CCN(Cc2cccc(F)c2)CC1)Nc1ccc2c(c1)CCc1n[nH]c(=O)n1-2,,,,,inactive
